{
  "source": "patent US8814930B2",
  "about": "“Biodegradable endoprosthesis and methods for their fabrication” (Elixir Medical Corporation, priority 2007, dated 2014)",
  "assay": "Pharmacokinetic release profile of novolimus from a stent (FIG. 35)",
  "assay_type": "in vivo",
  "data": [
    {"compound": "CO[C@@H]1C[C@H](C[C@@H](C)[C@@H]2CC(=O)[C@H](C)/C=C(\\C)[C@@H](O)[C@@H](OC)C(=O)[C@H](C)C[C@H](C)/C=C/C=C/C=C(\\C)[C@@H](O)C[C@@H]3CC[C@@H](C)[C@@](O)(O3)C(=O)C(=O)N3CCCC[C@H]3C(=O)O2)CC[C@H]1O", "note": "[novolimus, 16-O-desmethyl-rapamycin]", "values": [
      {"measurement": "therapeutic tissue drug concentration", "setting": "at 90 days", "result": 0.5, "unit": "ng/mg"},
      {"measurement": "drug released", "setting": "in one month, from a stent", "result": "over 85%"}
    ]}
  ]
}
